assay: RP, Thermo Scientific Acclaim RSLC 120 C18, 100 × 2.1 mm, 2.2 µm, 30 °C, 0.2 mL/min, estimated dead time 1.1 min; A: 90% water + 10% methanol + 0.01% formic acid + 5 mM ammonium formate, pH 3.61; B: methanol + 0.01% formic acid + 5 mM ammonium formate, pH 3.61; gradient (min/%B) 0/1 1/1 2/39 13/99.9 15/99.9 15.1/1 20.1/1; details: stereoisomer not certain

Structure (SMILES) | LC retention time [min]
CNC(=O)Oc1cc(C)c(C)c(C)c1 [Trimethacarb (3.4.5-)] | 8.1
CC(C)N(C(=O)CS(=O)(=O)O)c1ccccc1 [Propachlor-ESA] | 5.46
CC(CCc1ccc(O)cc1)NCCc1ccc(O)c(O)c1 (stereo unspecified) [Dobutamine] | 4.21
CN(C)C(=O)SCCCCOc1ccccc1 [Fenothiocarb] | 10.7
Cc1cccc(C)c1NC(=O)CS(=O)(=O)O | 9.34
CNC(C)Cc1cccc(F)c1 (stereo unspecified) [Amphetamine-3-F-Methyl (3-F-methamphetamine)] | 4.39
CON(C)C(=O)Nc1ccc(Br)c(Cl)c1 [Chlorbromuron] | 9.55
CNC(C)Cc1ccc(F)cc1 (stereo unspecified) [Amphetamine-4-F-Methyl (4-F-methamphetamine)] | 4.43
CC(=O)NCCCS(=O)(=O)O [Acamprosat] | 1.4
COc1c(C)c2c(c(O)c1CC=C(C)CCC(=O)O)C(=O)OC2 [Mycophenolic acid] | 8.79
C=C1CC2C(CCC3(C)C(=O)CCC23)C2(C)C=CC(=O)C=C12 (stereo unspecified) [Exemestane] | 9.03
COC(=O)C1C(O)CCC2CN3CCc4c([nH]c5ccccc45)C3CC21 (stereo unspecified) [Yohimbine] | 5.08
COc1nc(C)nc(NC(=O)NS(=O)(=O)c2ccccc2CCC(F)(F)F)n1 [Prosulfuron] | 8.57
CCC(NC)C(=O)c1ccc2c(c1)OCO2 (stereo unspecified) [Butylone] | 4.34
CN1C(=O)CN=C(c2ccccc2)c2cc(Cl)ccc21 [Diazepam] | 9.53
CCN(CC)C(=O)C1C=C2c3cccc4c3C(O)(CC2N(C)C1)C(=O)N4 (stereo unspecified) [2-Oxo-3-hydroxy-LSD] | 4.23
CN1CCCC1=O [N-Methyl-2-pyrrolidone] | 3.1
CC(C)N1C(=O)c2ccccc2NS1(=O)=O [Bentazone] | 5.22

Structure (SMILES) | LC retention time [min]
Clc1ccc(COC(Cn2ccnc2)c2ccc(Cl)cc2Cl)c(Cl)c1 (stereo unspecified) [Miconazole] | 13
O=c1cn[nH][nH]1 [1 2 3-triazole-5-OH (1.2.3)] | 5.99
CCN(CC)C(=O)c1cccc(C)c1 [DEET (Diethyltoluamide)] | 8.2
CCNCC(O)c1cccc(O)c1 (stereo unspecified) [Etilefrine] | 2.66
O=C(O)c1ccccc1C(=O)Nc1cccc2ccccc12 [Naptalam (N-1-Naphthylphthalamic acid)] | 6.75
CN(C)CCOc1ccccc1Cc1ccccc1 [Phenyltoloxamine] | 7.29
O=[N+]([O-])c1cncn1CCN1CCOCC1 [Nimorazole] | 4.09
CNC(=O)ON=CC(C)(C)SC [Aldicarb] | 6.17
O=C1NCCN1Cc1ccc(Cl)nc1 [Imidacloprid-urea] | 4.71
OCCN1CCN(CCC=C2c3ccccc3Sc3ccc(C(F)(F)F)cc32)CC1 [Flupentixol] | 10.2
N#Cc1c[nH]cc1-c1cccc2c1OC(F)(F)O2 [Fludioxonil] | 9.48
CN(C)C=Nc1c(I)cc(I)c(CCC(=O)O)c1I [Iopodic acid] | 10.2
CC(=NC#N)N(C)Cc1ccc(Cl)nc1 [Acetamiprid] | 5.17
COC(=O)NC(C(=O)NC(Cc1ccccc1)C(O)CN(Cc1ccc(-c2ccccn2)cc1)NC(=O)C(NC(=O)OC)C(C)(C)C)C(C)(C)C (stereo unspecified) [Atazanavir] | 10.9
O=C(O)COCC[N+]1([O-])CCN(C(c2ccccc2)c2ccc(Cl)cc2)CC1 (stereo unspecified) [Cetirizine-N-Oxide] | 9.13
CC1(C)OC(c2ccco2)CN1C(=O)C(Cl)Cl (stereo unspecified) [Furilazole] | 7.92
CN1CCC23c4c5ccc(O)c4OC2C(O)CCC3C1C5 (stereo unspecified) [Morphine-Dihydro] | 2.66
OCCOCCOCCN1CCN(C(c2ccccc2)c2ccc(Cl)cc2)CC1 (stereo unspecified) [Etodroxizine] | 8.33

From the RepoRT retention time repository (doi:10.1021/acs.analchem.2c02893)
